Test [1] concerns the target T1, Rat mGlu2 (Rattus norvegicus, UniProt P31421).
T1 construct: expressed in transfected cells; host or cells: HEK-293 co-expressing GIRK channels
The test is described as follows: mGlu receptor in vitro assay, thallium flux through GIRK channels, rat mGlu2. It is filed as cell-based. The following applies: PAM potency with EC20 glutamate. How it is done: (§1) Human Embryonic Kidney (HEK-293) cell lines co-expressing rat mGlu receptors 2, 3, 4, 6, 7 or 8 and G protein-coupled inwardly-rectifying potassium (GIRK) channels were grown in Growth Media containing 45% DMEM, 45% F-12, 10% FBS, 20 mM HEPES, 2 mM L-glutamine, antibiotic/antimycotic, non-essential amino acids, 700 μg/mL G418, and 0.6 μg/ml puromycin at 37° C. in the presence of 5% CO2. […] All cell culture reagents were purchased from Invitrogen Corp. (Carlsbad, CA) unless otherwise noted. Calcium assays were used to assess activity of compounds at mGlu1 and mGlu5, as previously described in Engers et al (J. Med. Chem. 2009, 52, 4115-4118). Calcium assays at mGlu3 were performed as described for mGlu5 with the exception that TREx293 mGlu3 Gα15 cells were treated with tetracycline at 20 ng/mL for 20 h prior to assay.
(§2) Compound activity at the group II (mGlu2 and mGlu3) and group III (mGlu4, mGlu6, mGlu7, and mGlu8) was assessed using thallium flux through GIRK channels, a method that has been described in detail. Briefly, cells were plated into 384-well, black-walled, clear-bottomed poly-D-lysine-coated plates at a density of 15,000 cells/20 μL/well in DMEM containing 10% dialyzed FBS, 20 mM HEPES, and 100 units/mL penicillin/streptomycin (assay media). Plated cells were incubated overnight at 37° C. in the presence of 5% CO2. The following day, the medium was exchanged from the cells to assay buffer [Hanks' balanced salt solution (Invitrogen) containing 20 mM HEPES, pH 7.3] using an ELX405 microplate washer (BioTek), leaving 20 μL/well, followed by the addition of 20 μL/well FluoZin2-AM (330 nM final concentration) indicator dye (Invitrogen; prepared as a stock in DMSO and mixed in a 1:1 ratio with Pluronic acid F-127) in assay buffer. Cells were incubated for 1 h at room temperature, and the dye exchanged to assay buffer using an ELX405, leaving 20 μL/well. Test compounds were diluted to 2 times their final desired concentration in assay buffer (0.3% DMSO final concentration). Agonists were diluted in thallium buffer [125 mM sodium bicarbonate (added fresh the morning of the experiment), 1 mM magnesium sulfate, 1.8 mM calcium sulfate, 5 mM glucose, 12 mM thallium sulfate, and 10 mM HEPES, pH 7.3] at 5 times the final concentration to be assayed. Cell plates and compound plates were loaded onto a kinetic imaging plate reader (FDSS 6000 or 7000; Hamamatsu Corporation, Bridgewater, NJ). Appropriate baseline readings were taken (10 images at 1 Hz; excitation, 470±20 nm; emission, 540±30 nm) and test compounds were added in a 20 μL volume and incubated for approximately 2.5 min before the addition of 10 μL of thallium buffer with or without agonist. After the addition of agonist, data were collected for approximately an additional 2.5 min. Data were analyzed using Excel (Microsoft Corp, Redmond, WA). The slope of the fluorescence increase beginning 5 s after thallium/agonist addition and ending 15 s after thallium/agonist addition was calculated, corrected to vehicle and maximal agonist control slope values, and plotted in using either XLfit (ID Business Solutions Ltd) or Prism software (GraphPad Software, San Diego, CA) to generate concentration-response curves. Potencies were calculated from fits using a four-point parameter logistic equation. For concentration-response curve experiments, compounds were serially diluted 1:3 into 10-point concentration response curves and were transferred to daughter plates using an Echo acoustic plate reformatter (Labcyte, Sunnyvale, CA). Test compounds were applied and followed by EC20 concentrations of glutamate.

The target of test [2] is T2, Rat mGlu3 (Rattus norvegicus, UniProt P31422).
T2 construct: expressed in transfected cells; host or cells: HEK-293 co-expressing GIRK channels
T2 sequence (P31422 23-879): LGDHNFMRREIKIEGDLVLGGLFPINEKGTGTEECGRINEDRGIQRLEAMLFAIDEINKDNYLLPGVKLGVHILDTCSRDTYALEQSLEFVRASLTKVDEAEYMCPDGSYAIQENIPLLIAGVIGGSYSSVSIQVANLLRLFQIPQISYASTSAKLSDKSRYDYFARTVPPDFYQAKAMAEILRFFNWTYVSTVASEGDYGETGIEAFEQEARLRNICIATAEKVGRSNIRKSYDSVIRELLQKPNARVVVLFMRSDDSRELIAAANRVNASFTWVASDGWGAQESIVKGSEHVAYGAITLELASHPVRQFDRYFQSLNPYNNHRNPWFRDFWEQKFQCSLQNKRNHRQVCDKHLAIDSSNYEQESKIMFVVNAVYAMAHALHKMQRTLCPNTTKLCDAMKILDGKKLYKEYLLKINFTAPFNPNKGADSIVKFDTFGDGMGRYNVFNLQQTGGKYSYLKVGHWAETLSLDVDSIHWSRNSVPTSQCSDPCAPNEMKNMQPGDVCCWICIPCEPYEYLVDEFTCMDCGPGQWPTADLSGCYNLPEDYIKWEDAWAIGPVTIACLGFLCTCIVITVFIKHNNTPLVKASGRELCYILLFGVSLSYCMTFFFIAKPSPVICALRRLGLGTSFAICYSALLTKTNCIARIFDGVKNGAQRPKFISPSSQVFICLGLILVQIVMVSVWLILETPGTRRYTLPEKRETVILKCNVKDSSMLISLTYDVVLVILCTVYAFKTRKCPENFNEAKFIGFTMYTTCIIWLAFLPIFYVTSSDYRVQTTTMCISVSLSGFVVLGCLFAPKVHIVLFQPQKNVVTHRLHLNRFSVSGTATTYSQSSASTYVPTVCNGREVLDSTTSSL
Kind of test: mGlu receptor in vitro assay (thallium flux through GIRK channels / calcium assay), rat mGlu3. As to conditions: PAM potency with EC20 glutamate. In kind it is cell-based. The method, then:
as §1, §2

A value given as a limit tells only on which side of the number the result lay.

T1 sequence (P31421 19-872): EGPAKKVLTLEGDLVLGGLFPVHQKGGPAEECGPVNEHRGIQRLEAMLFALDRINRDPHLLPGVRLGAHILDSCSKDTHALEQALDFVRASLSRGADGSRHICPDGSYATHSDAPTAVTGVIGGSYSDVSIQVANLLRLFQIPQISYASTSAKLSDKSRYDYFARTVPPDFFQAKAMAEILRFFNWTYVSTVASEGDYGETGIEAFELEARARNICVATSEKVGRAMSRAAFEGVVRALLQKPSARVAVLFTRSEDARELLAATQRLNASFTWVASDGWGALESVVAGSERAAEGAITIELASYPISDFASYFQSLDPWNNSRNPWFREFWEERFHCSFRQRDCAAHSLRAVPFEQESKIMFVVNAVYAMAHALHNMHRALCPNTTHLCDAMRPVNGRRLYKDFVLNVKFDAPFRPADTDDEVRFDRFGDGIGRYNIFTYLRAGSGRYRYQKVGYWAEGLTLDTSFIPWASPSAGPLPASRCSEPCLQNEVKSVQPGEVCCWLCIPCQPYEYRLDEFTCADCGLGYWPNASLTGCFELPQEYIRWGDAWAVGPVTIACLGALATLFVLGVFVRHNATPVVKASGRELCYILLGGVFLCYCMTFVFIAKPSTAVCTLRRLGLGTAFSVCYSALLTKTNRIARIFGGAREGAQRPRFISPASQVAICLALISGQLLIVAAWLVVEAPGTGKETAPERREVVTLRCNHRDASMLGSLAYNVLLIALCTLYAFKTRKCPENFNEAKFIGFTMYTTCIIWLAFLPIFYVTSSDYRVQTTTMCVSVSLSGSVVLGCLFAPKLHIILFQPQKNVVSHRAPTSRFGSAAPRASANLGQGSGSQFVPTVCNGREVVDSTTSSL

Broadly, the EC50 is the concentration at which the effect is half-maximal. In the case of `COc1ccc(C(=O)O)cc1OCCOCCOc1ccc(C(=O)CC(C)(C)C)c(O)c1C` [Example 1, 3-(2-(2-(4-(3,3-Dimethylbutanoyl)-3-hydroxy-2-methylphenoxy)ethoxy)ethoxy)-4-methoxybenzoic acid], the EC50 in test [1] worked out at 18 nM; in test [2] it was 52 nM.

As to `CCCC(=O)c1ccc(OC/C=C/COc2ccc(C(=O)O)cc2OC)c(C)c1O` [Example 6, (E)-4-((4-(4-Butyryl-3-hydroxy-2-methylphenoxy)but-2-en-1-yl)oxy)-3-methoxybenzoic acid], the results for the EC50 in test [1] and in test [2] were 4 nM and 2590 nM, respectively.

Regarding `CCCC(=O)c1ccc(OCCSCCOc2ccc(C(=O)O)cc2OC)c(C)c1O` [Example 15, 4-{2-[2-(4-Butanoyl-3-hydroxy-2-methylphenoxy)ethylthio]ethoxy}-3-methoxybenzoic acid], the EC50 in test [1] was 18 nM; in test [2] it was more than 30000 nM.

`Cc1c(OC/C=C/COc2ccc(C(=O)CC(C)(C)C)c(O)c2C)cccc1C(=O)O` [Example 21, 3-{(2E)-4-[4-(3,3-Dimethylbutanoyl)-3-hydroxy-2-methylphenoxy]but-2-enyloxy}-2-methylbenzoic acid]: the results for the EC50 in test [1] and in test [2] were 38 nM and 73 nM, respectively.

With `COc1ccc(C(=O)O)cc1OCC(C)CCOc1ccc(C(=O)CC(C)(C)C)c(O)c1C` (centres unmarked) [Example 32, 3-{4-[4-(3,3-Dimethylbutanoyl)-3-hydroxy-2-methylphenoxy]-2-methylbutoxy}-4-methoxybenzoic acid], the EC50 in test [1] amounted to 127 nM; in test [2] it was 200 nM.

For `CCCC(=O)c1ccc(OCC#CCOc2ccc(C(=O)O)cc2OC)c(C)c1O` [Example 34, 4-[4-(4-Butanoyl-3-hydroxy-2-methylphenoxy)but-2-ynyloxy]-3-methoxybenzoic acid], the EC50 in test [1] worked out at 31 nM; in test [2], 1900 nM.

With `CCCC(=O)c1ccc(OCCS(=O)(=O)CCOc2ccc(C(=O)O)c(Cl)c2)c(C)c1O` [Example 37, 4-(2-{[2-(4-Butanoyl-3-hydroxy-2-methylphenoxy)ethyl]sulfonyl}ethoxy)-2-chlorobenzoic acid], the EC50 in test [1] is more than 10000 nM; in test [2], more than 30000 nM.

For `CCCC(=O)c1ccc(OCCS(=O)(=O)CCOc2cccc(C(=O)O)c2C)c(C)c1O` [Example 38, 3-(2-{[2-(4-Butanoyl-3-hydroxy-2-methylphenoxy)ethyl]sulfonyl}ethoxy)-2-methylbenzoic acid], the figures for the EC50 in test [1] and in test [2] were more than 10000 nM and more than 30000 nM, respectively.

With `CCCC(=O)c1ccc(OCC[S+]([O-])CCOc2cccc(C(=O)O)c2C)c(C)c1O` (centres unmarked) [Example 39, 3-(2-{[2-(4-Butanoyl-3-hydroxy-2-methylphenoxy)ethyl]sulfinyl}ethoxy)-2-methylbenzoic acid], the concentration for a half-maximal effect (EC50) was more than 10000 nM in test [1] and more than 30000 nM in test [2].

Take `CCCC(=O)c1ccc(OCC[S+]([O-])CCOc2ccc(C(=O)O)c(Cl)c2)c(C)c1O` (centres unmarked) [Example 40, 4-(2-{[2-(4-Butanoyl-3-hydroxy-2-methylphenoxy)ethyl]sulfinyl}ethoxy)-2-chlorobenzoic acid]: the EC50 is 591 nM in test [1] and more than 30000 nM in test [2].

Take `CCCC(=O)c1ccc(OCC#CCOc2ccc(C(=O)O)c(Cl)c2)c(C)c1O` [Example 43, 4-[4-(4-Butanoyl-3-hydroxy-2-methylphenoxy)but-2-ynyloxy]-2-chlorobenzoic acid]: the values for the EC50 in test [1] and in test [2] were 33 nM and more than 10000 nM, respectively.

As for `Cc1c(OCCCCCOc2ccc(F)c(C(=O)O)c2)ccc(C(=O)CC(C)C)c1O` [Example 47, 2-Fluoro-5-{5-[3-hydroxy-2-methyl-4-(3-methylbutanoyl)phenoxy]pentyloxy}benzoic acid], the EC50 in test [1] was 113 nM; in test [2], 2040 nM.

Turning to `CCCC(=O)c1ccc(OCCCCCOc2ccc(F)c(C(=O)O)c2)c(C)c1O` [Example 48, 5-[5-(4-Butanoyl-3-hydroxy-2-methylphenoxy)pentyloxy]-2-fluorobenzoic acid], the EC50 is 39 nM in test [1] and more than 10000 nM in test [2].

(Values after patent publication US20250179000A1 (Sanford Burnham Prebys Medical Discovery Institute, priority 2021, published 2025).)
